From BindingDB's records for doi:10.1021/jm020056z (University of Newcastle, 2002)

Columns and labels:
[1] = biological target: T1, Cyclin-A2 [171-432]/Cyclin-dependent kinase 2 (Homo sapiens, UniProt P24941); assay: Kinase Inhibition Assay
T1 construct: 171-432

[2] = biological target: Cyclin-dependent kinase 1/G2/mitotic-specific cyclin-B (Marthasterias glacialis, UniProt P15206+Q9DGD3); assay: Kinase Inhibition Assay
Cyclin-dependent kinase 1/G2/mitotic-specific cyclin-B, sequence (Q9DGD3 whole entry): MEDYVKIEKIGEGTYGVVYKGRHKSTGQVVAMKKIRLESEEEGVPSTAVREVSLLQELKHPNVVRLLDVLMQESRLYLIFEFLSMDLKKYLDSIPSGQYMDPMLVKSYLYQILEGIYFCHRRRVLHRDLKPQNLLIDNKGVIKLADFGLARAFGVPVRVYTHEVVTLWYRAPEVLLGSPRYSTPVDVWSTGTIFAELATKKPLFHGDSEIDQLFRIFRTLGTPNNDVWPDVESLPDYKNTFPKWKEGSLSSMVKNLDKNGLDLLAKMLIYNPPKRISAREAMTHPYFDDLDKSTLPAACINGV
Cyclin-dependent kinase 1/G2/mitotic-specific cyclin-B, sequence (P15206 whole entry): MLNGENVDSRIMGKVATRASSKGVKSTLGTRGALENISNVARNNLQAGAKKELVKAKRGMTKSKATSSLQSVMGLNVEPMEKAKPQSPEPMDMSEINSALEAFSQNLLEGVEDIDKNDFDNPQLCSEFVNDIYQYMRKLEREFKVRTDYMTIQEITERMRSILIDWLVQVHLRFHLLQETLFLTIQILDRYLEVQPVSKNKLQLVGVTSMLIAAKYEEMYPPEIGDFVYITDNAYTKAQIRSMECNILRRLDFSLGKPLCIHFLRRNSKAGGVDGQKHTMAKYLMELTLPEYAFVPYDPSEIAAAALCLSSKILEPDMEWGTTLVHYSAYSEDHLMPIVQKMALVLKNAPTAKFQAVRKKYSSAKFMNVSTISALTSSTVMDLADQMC

SMILES | IC50 [1] | IC50 [2]
Nc1nc(OCC2CC=CCC2)c2[nH]cnc2n1 (stereo not drawn) | 16 µM | –
CCOC(C)(COc1nc(N)nc2[nH]cnc12)OCC | 33 µM | 36 µM
